pKi: −log10 of the molar value.

T1 sequence (Q01718 whole entry): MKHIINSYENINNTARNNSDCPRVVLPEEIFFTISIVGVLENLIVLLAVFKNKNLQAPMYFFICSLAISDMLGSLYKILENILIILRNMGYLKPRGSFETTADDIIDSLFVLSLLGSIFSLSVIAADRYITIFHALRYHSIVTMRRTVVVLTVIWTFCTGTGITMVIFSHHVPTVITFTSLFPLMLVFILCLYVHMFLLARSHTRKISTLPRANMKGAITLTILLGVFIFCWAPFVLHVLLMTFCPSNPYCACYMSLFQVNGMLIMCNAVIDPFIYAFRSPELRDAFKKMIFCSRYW
T1 sequence (Q8TCY5 whole entry partner): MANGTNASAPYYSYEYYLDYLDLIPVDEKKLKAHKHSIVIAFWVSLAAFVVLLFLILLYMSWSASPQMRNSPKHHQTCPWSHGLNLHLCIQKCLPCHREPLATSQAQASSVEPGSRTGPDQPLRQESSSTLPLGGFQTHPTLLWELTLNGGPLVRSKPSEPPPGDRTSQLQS

The test addresses T1, hMC2 receptor (crude hMC2R membranes from CRE-bla-CHO-K1 cells stably expressing hMC2 receptor and hMRAP accessory protein) (Homo sapiens, UniProt Q01718).
T1 construct: crude membrane fractions
Kind of test: hMC2 membrane binding assay ([125I]ACTH (1-39) Tyr23, SPA). The settings on record: displacement of 0.2 nM [125I]ACTH (1-39) Tyr23 from hMC2R membranes, 1.5 hours at room temperature; read-out: MC2R binding potency. The procedure, abridged: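 Ki values come from non-linear regression of SPA scintillation counts, with compounds displacing [125I]ACTH(1-39) Tyr23. Membranes come from CRE-bla-CHO-K1 cells stably expressing hMC2 receptor together with hMRAP. They are preincubated with WGA-coated PVT SPA beads in 50 mM HEPES pH 7.4 with 0.20% BSA, Mg2+, Ca2+ and protease inhibitors.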
In the case of `CN1CC[C@H](NC(=O)C2(c3cnc(-c4cccn4C)c(F)c3)CCN(c3ccc(Cl)cc3C#N)CC2)C1` [Compound 1-163, 1-(4-chloro-2-cyanophenyl)-4-[5-fluoro-6-(1-methyl-1H-pyrrol-2-yl)pyridin-3-yl]-N-[(3S)-1-methylpyrrolidin-3-yl]piperidine-4-carboxamide], the pKi was above 8.00. On to `CCCOc1ccccc1-c1ccc(C2(C(=O)N[C@@H]3CCN(C)C3)CCN(c3ccc(C(F)(F)F)cc3C#N)CC2)cn1` [Compound 1-63, 1-[2-cyano-4-(trifluoromethyl)phenyl]-N-[(3R)-1-methylpyrrolidin-3-yl]-4-[6-(2-propoxyphenyl)pyridin-3-yl]piperidine-4-carboxamide], for which the pKi is above 8.00. The same measure for `CCOc1ncccc1-c1ccc(C2(C(=O)NC[C@H](C)N)CCN(c3ccc(C(F)(F)F)cc3C#N)CC2)cn1` [Compound 1-16, N-[(2S)-2-aminopropyl]-1-[2-cyano-4-(trifluoromethyl)phenyl]-4-{2′-ethoxy-[2,3′-bipyridin]-5-yl}piperidine-4-carboxamide]: above 8.00; for `CCOc1ncccc1-c1ccc(C2(NCCO)CCN(c3ccc(C(F)(F)F)cc3C#N)CC2)cn1` [Compound 2-14, 2-(4-{2′-ethoxy-[2,3′-bipyridin]-5-yl}-4-[(2-hydroxyethyl)amino]piperidin-1-yl)-5-(trifluoromethyl)benzonitrile]: 7.00 to 8.00. Take `CCOc1ncccc1-c1ccc(C2(NC(=O)C3CN(C)C3)CCN(c3ccc(C(F)(F)F)cc3C#N)CC2)cc1` [Compound 2-16, N-{1-[2-cyano-4-(trifluoromethyl)phenyl]-4-[4-(2-ethoxypyridin-3-yl)phenyl]piperidin-4-yl}-1-methylazetidine-3-carboxamide]: the pKi is 7.00 to 8.00. As to `COc1ccccc1-c1ccc(C2(C(=O)NC[C@H]3CCN3C)CCN(c3ccc(C(F)(F)F)cc3C#N)CC2)cn1` [Compound 1-244, 1-[2-cyano-4-(trifluoromethyl)phenyl]-4-[6-(2-methoxyphenyl)pyridin-3-yl]-N-{[(2R)-1-methylazetidin-2-yl]methyl}piperidine-4-carboxamide], the pKi was above 8.00.

Turning to `Cc1ccccc1-c1ccc(C2(C(=O)N[C@@H]3CCN(C)C3)CCN(c3ccc(C(F)(F)F)cc3C#N)CC2)cn1` [Compound 1-66, 1-[2-cyano-4-(trifluoromethyl)phenyl]-4-[6-(2-methylphenyl)pyridin-3-yl]-N-[(3R)-1-methylpyrrolidin-3-yl]piperidine-4-carboxamide], the pKi is above 8.00.

For `CCOc1ncccc1-c1ccc(C2(C(=O)N[C@@H](C)CNC)CCN(c3ccc(Cl)cc3Cl)CC2)cn1` [Compound 1-322, 1-(2,4-dichlorophenyl)-4-{2′-ethoxy-[2,3′-bipyridin]-5-yl}-N-[(2S)-1-(methylamino)propan-2-yl]piperidine-4-carboxamide], the pKi was above 8.00. With `CN1CC[C@H](NC(=O)C2(c3ccc(-c4cccn4C)nc3)CCN(c3ccc(C(F)(F)F)cc3Cl)CC2)C1` [Compound 1-160, 1-[2-chloro-4-(trifluoromethyl)phenyl]-4-[6-(1-methyl-1H-pyrrol-2-yl)pyridin-3-yl]-N-[(3S)-1-methylpyrrolidin-3-yl]piperidine-4-carboxamide], the pKi is above 8.00. In the case of `CCOc1ccccc1-c1ccc(C2(C(=O)N[C@@H]3CCN(C)C3)CCN(c3ccc(C(F)(F)F)cc3C#N)CC2)cn1` [Compound 1-31, 1-[2-cyano-4-(trifluoromethyl)phenyl]-4-[6-(2-ethoxyphenyl)pyridin-3-yl]-N-[(3R)-1-methylpyrrolidin-3-yl]piperidine-4-carboxamide], the pKi is above 8.00.

Regarding `COc1ccccc1-c1ccc(C2(C(=O)N[C@H]3CCN(C)C3)CCN(c3ccc(C(F)(F)F)cc3Cl)CC2)cn1` [Compound 1-144, 1-[2-chloro-4-(trifluoromethyl)phenyl]-4-[6-(2-methoxyphenyl)pyridin-3-yl]-N-[(3S)-1-methylpyrrolidin-3-yl]piperidine-4-carboxamide], the pKi was above 8.00.

The values are drawn from patent US12492181B2, “Gem-disubstituted piperidine melanocortin subtype-2 receptor (MC2R) antagonists and uses thereof” (Crinetics Pharmaceuticals, Inc., priority 2019, dated 2025).
